Assay results from paper PMC8923065, “Paeoniflorin reduce luxS/AI-2 system-controlled biofilm formation and virulence in Streptococcus suis” (Virulence, 2021).

Target: T1, LuxS (Streptococcus suis, UniProt B2CMA5)
T1 construct: recombinant from pET28-luxS in E. coli BL21(DE3), HisTrap purified
Test: Ellman assay of homocysteine, […] nm, Michaelis-Menten fit
Assay type: biochemical
Conditions: SRH as substrate, 6.25-25 ug/ml PF, pH 7.2, 37 °C; competitive; partial inhibition

T1 sequence (B2CMA5 entry or part of it): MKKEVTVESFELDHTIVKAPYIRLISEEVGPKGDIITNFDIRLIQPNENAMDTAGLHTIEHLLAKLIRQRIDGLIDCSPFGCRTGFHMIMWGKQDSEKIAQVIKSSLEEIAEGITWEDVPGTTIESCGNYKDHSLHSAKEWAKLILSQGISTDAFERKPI

C[C@@]12C[C@@]3(O)O[C@@H](O1)[C@]1(COC(=O)c4ccccc4)[C@H]3C[C@@]12O[C@@H]1O[C@H](CO)[C@@H](O)[C@H](O)[C@H]1O [PF, paeoniflorin]
Ellman assay of homocysteine, 412 nm, Michaelis-Menten fit: the Km value of LuxS gradually increases, although the maximum reaction rate does not change
